Laboratory results taken from patent publication US6673937B2, “Syntheses and methods of use of new antimitotic agents” (The University of Pittsburgh, priority 2000, dated 2004).

Key:
PTPIB = target: T1, PTPIB (Homo sapiens, UniProt P18031); assay: In vitro inhibition of PTPIB; format: biochemical; conditions: 30 μM, data not shown
T1 sequence (P18031 1-435): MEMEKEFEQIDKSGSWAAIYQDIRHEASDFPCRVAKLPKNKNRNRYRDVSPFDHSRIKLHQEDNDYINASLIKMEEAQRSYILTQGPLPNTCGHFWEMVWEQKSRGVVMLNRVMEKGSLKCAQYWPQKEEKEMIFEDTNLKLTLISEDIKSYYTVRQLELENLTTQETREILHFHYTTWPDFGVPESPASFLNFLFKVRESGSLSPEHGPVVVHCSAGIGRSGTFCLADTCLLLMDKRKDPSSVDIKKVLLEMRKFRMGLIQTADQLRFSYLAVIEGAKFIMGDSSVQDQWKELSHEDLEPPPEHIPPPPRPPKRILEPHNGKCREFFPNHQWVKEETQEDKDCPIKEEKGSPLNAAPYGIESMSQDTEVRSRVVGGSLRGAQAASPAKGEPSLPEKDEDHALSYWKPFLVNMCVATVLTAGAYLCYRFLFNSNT

Bcl-2 = Bcl-2 phosphorylation immunoblot in MCF-7 cells; format: cell-based, human; conditions: 3 or 10 μM
Source text: Attempts to determine the phosphorylation status of Bcl-2 in tsFT210 cells using two different antibodies were unsuccessful due to the antibodies' inability to detect mouse Bcl-2 or the lack of specificity. Therefore, phosphorylated and non-phosphorylated Bcl-2 was detected in lysates from human MCF-7 cells (American Type Culture Collection, Manassas, Va.) treated with microtubule perturbing agents. Equal amounts of protein were separated by electrophoresis on 15% SDS-PAGE followed by immunoblotting with an antihuman Bcl-2 antibody (sc-509, Santa Cruz Biotechnology). Positive antibody reactions were visualized using peroxidase-conjugated secondary antibodies (Jackson ImmunoResearch, West Grove, Pa.) and an enhanced chemiluminescence detection system (Renaissance, NEN, Boston, Mass.) according to manufacturer's instructions.
All known microtubule disrupting compounds cause hyperphosphorylation of the antiapoptotic protein Bcl-2 (Haldar S, Jena N and Croce CM (1995) Inactivation of bcl-2 by phospliorylation. Proc Natl Acad Sci USA 92:4507-4511 and Basu A and Haldar S (1998) Microtubule-damaging drugs trigger bcl2 phosphorylation-requirement of phosphorylation on both serine-70 and serine-87 residues of bcl2 protein. Intl J Oncol 13:659-664). Therefore, the phosphorylation status of Bcl-2 in cells treated with various compounds including SR-7 was examined and the results are illustrated in FIG. 29. Proteins from lysates of MCF-7 cells treated with 0.5 μM paclitaxel, 1 μM nocodozole, 1,μM vincristine and, 3 or 10 μM SR-7 were separated by electrophoresis on 15% SDS-PAGE followed by immunoblotting with an antibody to Bcl-2. The phosphorylated form of Bcl-2 (P) appeared as the upper bands and the underphosphorylated form (U) was the lower band.

bovine brain tubulin = assay: Inhibition of [3H]colchicine binding; conditions: 5 μM compound; Mean ± SEM, N = 9
Protocol: Using methods described previously (Verdier-Pinard P, Lai J-Y, Yoo H-D, Yu J, Marquez B, Nagle DG, Nambu M, White JD, Falck JR, Gerwick WH, Day BW and Hamel E (1998) Structure-activity analysis of the interaction of curacin A, the potent colchicine site antimitotic agent, with tubulin and effects of analogs on the growth of MCF-7 breast cancer cells. Mol Phannacol 53:62-76.). 5,μM [^3H]colchicine was incubated with either 5% DMSO vehicle or compound (5 or 50 μM) at 37° C. for 15 min with 1 μM tubulin in the presence of 1 M monosodium glutamate, 0.1 M glucose-1-phosphate, 1 mM MgCl2, 1 mM GTP and 0.5 mg/ml bovine serum albumin. The solutions were filtered through two stacks of DEAE-cellulose filters and the radioactivity in the filtrate was determined by liquid scintillation spectrometry. Each series of determinations included positive controls of 5 and 50 μM curacin A. The inventors found no evidence that SR-7 could bind to the colchicine site of tubulin. […] The inventors propose that SR-7 may act at another site such as the previously characterized vinca alkaloid site.

O=C1C=CC2(Oc3cccc4cccc(c34)O2)c2cccc(OCc3ccco3)c21 [SR-7, 8-(furan-2-ylmethoxy)-1-oxo-1,4-dihydronaphthalene-4-spiro-2′-naphto [1″,8″-de][1′,3′] dioxin]
inhibition of PTPIB activity (PTPIB): no inhibition | Bcl-2 phosphorylation (Bcl-2): failed to generate significant hyperphosphorylated Bcl-2 | Percent inhibition of [3H]colchicine binding (bovine brain tubulin): 1.5 ± 0.5%
